Consider 23 molecules from patent US9670227B2, “Thienopyrimidine derivatives, a process for their preparation and pharmaceutical compositions containing them” (LES LABORATOIRES SERVIER, priority 2013, dated 2017).

For one experiment, the target named is Mcl-1 protein (UniProtKB primary accession number: Q07820) (Homo sapiens, UniProt Q07820). As to the kind of experiment: Inhibition of Mcl-1 by fluorescence polarisation, Method 1. The experiment is classed as binding. The conditions noted are these: @ 10 uM test compound. A digest of the protocol: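 An 11-point DMSO dilution of compound is mixed with buffer (10 mM HEPES, 150 mM NaCl, 0.05% Tween 20, pH 7.4) carrying 1 nM fluorescein-labelled ligand and 5 nM Mcl-1, final concentrations. Displacement is monitored by fluorescence polarisation.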
Mcl-1 protein, sequence (Q07820 whole entry): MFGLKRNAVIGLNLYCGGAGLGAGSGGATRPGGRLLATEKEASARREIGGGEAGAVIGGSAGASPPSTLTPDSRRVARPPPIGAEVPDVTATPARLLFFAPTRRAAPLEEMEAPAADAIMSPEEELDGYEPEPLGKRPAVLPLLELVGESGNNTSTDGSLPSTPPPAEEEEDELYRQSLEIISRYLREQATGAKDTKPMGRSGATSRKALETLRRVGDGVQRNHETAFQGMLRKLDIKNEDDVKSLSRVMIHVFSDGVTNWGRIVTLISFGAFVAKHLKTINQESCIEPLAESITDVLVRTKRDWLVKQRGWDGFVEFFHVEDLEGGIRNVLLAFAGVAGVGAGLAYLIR
Consider `CCc1c(-c2c(-c3ccco3)sc3ncnc(O[C@H](Cc4ccccc4OC)C(=O)O)c23)ccc(OCCN2CCN(C)CC2)c1Cl` [Example 336, (2R)-2-{[(5Ra)-5-{3-chloro-2-ethyl-4-[2-(4-methylpiperazin-1-yl)ethoxy]phenyl}-6-(furan-2-yl)thieno[2,3-d]pyrimidin-4-yl]oxy}-3-(2-methoxyphenyl)propanoic acid], for which the “percentage fluorescence polarisation inhibition (Mcl-1 FP), partial inhibitors” value is reported as 43.2% @ 10 uM.

Staying with this experiment, now noted: fluorescence polarisation test; Method 1, or Method 2 where the value is underlined (underlining not visible); read-out: IC50 (M) Mcl-1 FP.
Turning to `COCCOC(=O)C(Cc1ccccc1OCc1ccnn1C(C)(C)C)Oc1ncnc2sc(-c3ccc(F)cc3)c(-c3ccc(OCCN(C)C)c(Cl)c3C)c12` [Example 802, 2-methoxyethyl (2R)-3-{2-[(1-tert-butyl-1H-pyrazol-5-yl)methoxy]phenyl}-2-{[(5Sa)-5-{3-chloro-4-[2-(dimethylamino)ethoxy]-2-methylphenyl}-6-(4-fluorophenyl)thieno[2,3-d]pyrimidin-4-yl]oxy}propanoate], the IC50 was 2.88e-06 M. As to `CCOC(=O)C(Cc1ccccc1OCc1ccnc(-c2ccccc2OC)n1)Oc1ncnc2sc(-c3ccc(F)cc3)c(-c3ccc(OCCN4CCNCC4)c(Cl)c3C)c12` [Example 795, ethyl (2R)-2-{[(5Sa)-5-{3-chloro-2-methyl-4-[2-(piperazin-1-yl)ethoxy]phenyl}-6-(4-fluorophenyl)thieno[2,3-d]pyrimidin-4-yl]oxy}-3-(2-{[2-(2-methoxyphenyl)pyrimidin-4-yl]methoxy}phenyl)propanoate], the IC50 turned out to be 8.5e-07 M. Regarding `Cc1c(-c2c(-c3ccc(F)cc3)sc3ncnc(OC(Cc4ccccc4OCc4ccnn4C(C)(C)C)C(=O)OCOC(=O)C(C)(C)C)c23)ccc(OCCN(C)C)c1Cl` [Example 821, {[(2R)-3-{2-[(1-tert-butyl-1H-pyrazol-5-yl)methoxy]phenyl}-2-{[(5Sa)-5-{3-chloro-4-[2-(dimethylamino)ethoxy]-2-methylphenyl}-6-(4-fluorophenyl)thieno[2,3-d]pyrimidin-4-yl]oxy}propanoyl]oxy}methyl 2,2-dimethylpropanoate], the IC50 was found to be 3.61e-07 M.

The experiment is the same for the next values; noted with them: fluorescence polarisation test; Method 2 values are underlined in the patent (underlining not visible here); read-out: IC50 (M) Mcl-1 FP.
Consider `COc1ccccc1CC(Oc1ncnc2sc(-c3ccco3)c(-c3ccc(OCCN4CCN(C)CC4)c(Cl)c3C)c12)C(=O)O` [Example 209, (2R)-2-{[(5Sa)-5-{3-chloro-2-methyl-4-[2-(4-methylpiperazin-1-yl)ethoxy]phenyl}-6-(furan-2-yl)thieno[2,3-d]pyrimidin-4-yl]oxy}-3-(2-methoxyphenyl)propanoic acid], for which the IC50 was 9.8e-09 M. The same measure, in the same setting: as for `Cc1c(-c2c(-c3ccc(F)cc3)sc3ncnc(OC(Cc4ccccc4OCc4ccnc(-c5ccncc5)n4)C(=O)O)c23)ccc(OCCN2CCN(C)CC2)c1Cl` [Example 34, (2R)-2-{[(5Sa)-5-{3-chloro-2-methyl-4-[2-(4-methylpiperazin-1-yl)ethoxy]phenyl}-6-(4-fluorophenyl)thieno[2,3-d]pyrimidin-4-yl]oxy}-3-(2-{[2-(pyridin-4-yl)pyrimidin-4-yl]methoxy}phenyl)propanoic acid], the figure is 3.3e-09 M.

Staying with this experiment, now noted: fluorescence polarisation; Method 1, or Method 2; read-out: IC50 (M) Mcl-1 FP.
As to `COc1ccccc1-c1nccc(COc2ccccc2CC(Oc2ncnc3sc(-c4ccc(Oc5ccccc5)cc4)c(-c4ccc(OCCN5CCN(C)CC5)c(Cl)c4C)c23)C(=O)O)n1` (single isomer, unassigned) [Example 758], the IC50 turned out to be 3.53e-07 M. On the same count and under the same terms, as for `CC#Cc1sc2ncnc(OC(Cc3ccccc3OCc3ccnn3C(C)(C)C)C(=O)OCC)c2c1-c1ccc(OCCN2CCN(C)CC2)c(Cl)c1C` [Example 792, ethyl (2R)-3-{2-[(1-tert-butyl-1H-pyrazol-5-yl)methoxy]phenyl}-2-{[(5Sa)-5-{3-chloro-2-methyl-4-[2-(4-methylpiperazin-1-yl)ethoxy]phenyl}-6-(prop-1-yn-1-yl)thieno[2,3-d]pyrimidin-4-yl]oxy}propanoate], the figure is 6.44e-06 M; as for `Cc1c(-c2c(-c3ccc(F)cc3)sc3ncnc(OC(Cc4ccccc4OCC4CCCO4)C(=O)O)c23)ccc(OCCN2CCOCC2)c1Cl` [Example 648, (2R)-2-{[(5Sa)-5-{3-chloro-2-methyl-4-[2-(morpholin-4-yl)ethoxy]phenyl}-6-(4-fluorophenyl)thieno[2,3-d]pyrimidin-4-yl]oxy}-3-{2-[(2R)-tetrahydrofuran-2-ylmethoxy]phenyl}propanoic acid], 1.4e-08 M. The same measure, in the same setting: as for `CCc1sc2ncnc(O[C@H](Cc3ccccc3)C(=O)O)c2c1-c1cc2cc(CN(C)C)oc2c(Cl)c1C` [Example 442, (2R)-2-[((5Sa)-5-{7-chloro-2-[(dimethylamino)methyl]-6-methyl-1-benzofuran-5-yl}-6-ethylthieno[2,3-d]pyrimidin-4-yl)oxy]-3-phenylpropanoic acid], the figure is 1.1e-07 M. `CC(=O)c1sc2ncnc(OC(Cc3ccccc3)C(=O)O)c2c1-c1ccc(OCCN2CCN(C)CC2)c(Cl)c1C` [Example 522, (2R)-2-[(6-acetyl-(5Sa)-5-{3-chloro-2-methyl-4-[2-(4-methylpiperazin-1-yl)ethoxy]phenyl}thieno[2,3-d]pyrimidin-4-yl)oxy]-3-phenylpropanoic acid]: the IC50 amounted to 7.5e-08 M.

On to `COc1ccccc1CC(Oc1ncnc2sc(-c3cccc(OCCN4CCN(C)CC4)c3)c(-c3ccc(OC)c(Cl)c3C)c12)C(=O)O` [Example 713, (2R)-2-{[(5Sa)-5-(3-chloro-4-methoxy-2-methylphenyl)-6-{3-[2-(4-methylpiperazin-1-yl)ethoxy]phenyl}thieno[2,3-d]pyrimidin-4-yl]oxy}-3-(2-methoxyphenyl)propanoic acid], for which the half-maximal inhibitory concentration (IC50) was found to be 1.6e-08 M. With `CC#Cc1sc2ncnc(O[C@H](Cc3ccccc3OCc3ccnc(-c4ccccc4OC)n3)C(=O)O)c2c1-c1ccc(OCCN2CCN(C)CC2)c(Cl)c1C` [Example 482, (2R)-2-{[(5Sa)-5-{3-chloro-2-methyl-4-[2-(4-methylpiperazin-1-yl)ethoxy]phenyl}-6-(prop-1-yn-1-yl)thieno[2,3-d]pyrimidin-4-yl]oxy}-3-(2-{[2-(2-methoxyphenyl)pyrimidin-4-yl]methoxy}phenyl)propanoic acid], the IC50 amounted to 7.4e-09 M. Regarding `CC(C)=Cc1sc2ncnc(OC(Cc3ccccc3)C(=O)O)c2c1-c1ccc(OCCN2CCN(C)CC2)c(Cl)c1C` [Example 494, (2R)-2-{[(5Sa)-5-{3-chloro-2-methyl-4-[2-(4-methylpiperazin-1-yl)ethoxy]phenyl}-6-(2-methylprop-1-en-1-yl)thieno[2,3-d]pyrimidin-4-yl]oxy}-3-phenylpropanoic acid], the half-inhibitory concentration (IC50) came to 4.4e-08 M. Regarding `CC#Cc1sc2ncnc(OC(Cc3ccccc3OC)C(=O)O)c2c1-c1cc(N2CCN(C)CC2)c(OC)c(Cl)c1C` [Example 473, (2R)-2-({(5Sa)-5-[3-chloro-4-methoxy-2-methyl-5-(4-methylpiperazin-1-yl)phenyl]-6-(prop-1-yn-1-yl)thieno[2,3-d]pyrimidin-4-yl}oxy)-3-(2-methoxyphenyl)propanoic acid], the IC50 amounted to 5e-08 M.

Regarding `CCc1sc2ncnc(OC(Cc3ccccc3OCCOC)C(=O)O)c2c1-c1ccc(OCCN2CCN(C)CC2)c(Cl)c1C` [Example 457, (2R)-2-[((5Sa)-5-{3-chloro-2-methyl-4-[2-(4-methylpiperazin-1-yl)ethoxy]phenyl}-6-ethylthieno[2,3-d]pyrimidin-4-yl)oxy]-3-[2-(2-methoxyethoxy)phenyl]propanoic acid], the IC50 stood at 3.4e-08 M.

As to `CC#Cc1sc2ncnc(OC(Cc3ccccc3OC)C(=O)O)c2c1-c1ccc(O)c(Cl)c1C` [Example 480, (2R)-2-{[(5Sa)-5-(3-chloro-4-hydroxy-2-methylphenyl)-6-(prop-1-yn-1-yl)thieno[2,3-d]pyrimidin-4-yl]oxy}-3-(2-methoxyphenyl)propanoic acid], the IC50 worked out at 2.8e-08 M. In the case of `COc1ccccc1CC(Oc1ncnc2sc(-c3ccsc3)c(-c3ccc(O)c(Cl)c3C)c12)C(=O)O` [Example 715, (2R)-2-{[(5Sa)-5-(3-chloro-4-hydroxy-2-methylphenyl)-6-(thiophen-3-yl)thieno[2,3-d]pyrimidin-4-yl]oxy}-3-(2-methoxyphenyl)propanoic acid], the IC50 turned out to be 1.6e-09 M. For `CCc1sc2ncnc(OC(Cc3ccccc3)C(=O)O)c2c1-c1ccc(OCCO)c(Cl)c1C` [Example 423, (2R)-2-({(5Sa)-5-[3-chloro-4-(2-hydroxyethoxy)-2-methylphenyl]-6-ethylthieno[2,3-d]pyrimidin-4-yl}oxy)-3-phenylpropanoic acid], the IC50 turned out to be 5.3e-08 M. For the molecule `CC#Cc1sc2ncnc(O[C@H](Cc3ccccc3OC)C(=O)O)c2c1-c1cc(F)c(OC)c(Cl)c1C` (single isomer, unassigned) [Example 471], the IC50 stood at 6.3e-09 M. For the molecule `COc1ccccc1CC(Oc1ncnc2sc(-c3cccc(OC(F)(F)F)c3F)c(-c3ccc(OCCN4CCN(C)CC4)c(Cl)c3C)c12)C(=O)O` [Example 562, (2R)-2-[((5Sa)-5-{3-chloro-2-methyl-4-[2-(4-methylpiperazin-1-yl)ethoxy]phenyl}-6-[2-fluoro-3-(trifluoromethoxy)phenyl]thieno[2,3-d]pyrimidin-4-yl)oxy]-3-(2-methoxyphenyl)propanoic acid], the IC50 turned out to be 5.1e-07 M. The same measure, in the same setting: as for `COc1ccccc1CC(Oc1ncnc2sc(-c3cccnc3)c(-c3ccc(OCCN4CCN(C)CC4)c(Cl)c3C)c12)C(=O)O` [Example 567, (2R)-2-{[(5Sa)-5-{3-chloro-2-methyl-4-[2-(4-methylpiperazin-1-yl)ethoxy]phenyl}-6-(pyridin-3-yl)thieno[2,3-d]pyrimidin-4-yl]oxy}-3-(2-methoxyphenyl)propanoic acid], the figure is 2.1e-08 M. Regarding `CCc1sc2ncnc(OC(Cc3ccccc3)C(=O)O)c2c1-c1cc(Br)c(O)c(Cl)c1C` [Example 427, (2R)-2-{[(5Sa)-5-(5-bromo-3-chloro-4-hydroxy-2-methylphenyl)-6-ethylthieno[2,3-d]pyrimidin-4-yl]oxy}-3-phenylpropanoic acid], the half-maximal inhibitory concentration (IC50) was determined as 4.7e-09 M.
